# Results as given in publication PMC9525708, “Mechanistic insight into the role of mevalonate kinase by a natural fatty acid-mediated killing of Leishmania donovani” (Scientific Reports, 2022).
# Key:
# [1] = biological target: T1, mevalonate kinase (MevK, LD-MevK) (Leishmania donovani, UniProt A0A3S7X459); test: ITC (endothermic binding constant); also CD and enzyme kinetics (Km […])
# T1 construct: gene LdCL_310011300; recombinant LD-MevK (pET28a, Ni-NTA purified, ~37 kDa)
# T1 sequence (A0A3S7X459 1-329): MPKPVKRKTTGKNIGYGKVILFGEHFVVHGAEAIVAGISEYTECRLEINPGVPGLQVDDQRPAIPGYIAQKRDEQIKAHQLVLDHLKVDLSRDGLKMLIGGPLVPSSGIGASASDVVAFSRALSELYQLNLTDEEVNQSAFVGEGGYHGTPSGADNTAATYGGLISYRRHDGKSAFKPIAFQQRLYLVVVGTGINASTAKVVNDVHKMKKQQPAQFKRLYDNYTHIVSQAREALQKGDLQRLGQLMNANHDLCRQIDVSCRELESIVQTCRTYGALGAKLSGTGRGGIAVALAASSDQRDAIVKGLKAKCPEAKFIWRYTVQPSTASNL
# [2] = biological target: T1, mevalonate kinase (MevK, LD-MevK); test: pyruvate kinase-lactate dehydrogenase coupled assay, purified enzyme, […] compound; type: biochemical
# [3] = biological target: T1, mevalonate kinase (MevK, LD-MevK); test: ITC (exothermic binding constant); also CD, and coupled PK-LDH assay with purified enzyme ([…] inhibition at […], competitive); conditions: read-out: ITC (exothermic binding constant); also CD, and coupled PK-LDH assay with purifi
smiles,measurement,setting,value
"C[C@@](O)(CCO)CC(=O)O [MEV, 3,5-Dihydroxy-3-methylpentanoic acid]",Kd,[1],62.9 µM
"CCCCC(C)CCC(=O)O (stereo not shown) [4m-CA, 4-methyl octanoic acid]",inhibition at 100 µM,[2],~65%
"CCCCCCCC(=O)O [CA, Caprylic acid]",Kd,[3],101 µM
"CCCCCCCC(=O)OC [1m-CAE, methyl octanoate]",inhibition at 100 µM,[2],~65%
